From patent US8883500B2, “Method of preparing adenosine-resistant anti-tumor T lymphocytes for adoptive immunotherapy” (Northeastern University, priority 2008, dated 2014)
Where “and” joins values, the source holds several entries; their conditions need not be identical. Equal entries are not always repeated.

Columns and labels:
[1] = tested on: A2A/A2B adenosine receptor; assay: cAMP assay in CTL; assay type: cell-based, mice; details: control CTL; cAMP inducer 10 μM (FIG. 6 legend), 15 min
Protocol: Stimulation of cAMP production and measurement of cAMP levels were performed as described previously (Apasov et al., 2000). […]; from Tocris, Ellisville, Mo.), or forskolin (adenylate cyclase activator; from Sigma). […]

[2] = tested on: CTL; assay: IFN-γ production from CTL restimulated by immobilized anti-CD3 and anti-CD28 mAbs (ELISA); assay type: cell-based, mice; set-up: IFN-γ levels (%) of corresponding CTL without CGS/NECA / IFN-γ levels (%), None (reference = 100): unit of the concentration uncertain; details: for IFN-γ levels (%) of corresponding CTL without CGS/NECA: anti-CD3/anti-CD28 24 h in presence of the agonist (10 (unit uncertain)); for IFN-γ production: control CTL restimulated with anti-CD3 mAb, agonist 10 μM; for IFN-γ levels: restimulation without agonist (None); for IFN-γ levels (%), None (reference = 100): no agonist at restimulation
Protocol: CTL (2×10^5 cells) were washed twice with media and restimulated by plate-bound anti-CD3 and anti-CD28 monoclonal antibodies (mAb) (BD Biosciences, San Diego, Calif.). Anti-CD3 mAb (2 μg ml^−1) and anti-CD28 mAb (1 μg ml^−1) diluted in PBS were immobilized in a flat-bottom 96-well plastic culture plate for 1 h at 37° C. before use. In order to examine anti-tumor cellular response, CTL (2×10^5 cells) were also cultured with mitomycin C-treated P815 mastocytoma (2.5×10^5 cells). […]. Culture supernatant after 24-48 h was assayed for IFN-γ levels by ELISA.

[3] = tested on: CD8+ T cells; assay: Flowcytometric analysis (CD8 proportion, intracellular IFN-γ staining); assay type: cell-based, mice; details: for reduction of IFN-γ producers: control CTL, agonist 10 μM
Protocol: Cells recovered from mixed lymphocyte culture were labeled with phycoerythrin-conjugated anti-CD8, allophycocyanin-conjugated anti-CD4 and fluorescein-conjugated anti-CD69 mAb, and were analyzed by FACSCalibur (BD Biosciences). Cytokine production from CTL was analyzed by intracellular staining as described (Nishimura et al., 1999). After the stimulation with immobilized anti-CD3 and anti-CD28 mAb for 24 h, cells were further incubated in the presence of brefeldin A (10 μg ml^−1) for 2 h. Cells were fixed with 4% parafolmaldehyde-PBS for 15 min, permeabilized with permeabilizing buffer (50 mM NaCl, 5 mM EDTA, 0.02% NaN3, 0.5% Triton X-100, 10 mM Tris-HCl, pH 7.5) for 15 min, and stained with fluorescein-labeled anti-IFN-γ mAb. IFN-γ-producing CD8^+ cells were identified by cell surface staining using phycoerythrin-conjugated anti-CD8 mAb. All antibodies were obtained from BD Biosciences.

[4] = tested on: mixed lymphocyte culture of C57BL/6 and DBA/2 spleen cells (CTL); assay: Mixed lymphocyte culture: cell proliferation ([3H] thymidine incorporation) and cell number; assay type: cell-based, mice; details: for cell number, % of control: primary mixed lymphocyte culture 5 days
Protocol: (§1) Antigen-specific cytotoxic T cells were induced by allogenic mixed lymphocyte culture using spleen cells from C57BL/6 (H-2^b) and DBA/2 (H-2^d) mice. Spleen cells from DBA/2 mice were pretreated with 50 μg ml^−1 mitomycin C (Sigma; St. Louis, Mo.) for 30 min at 37° C. After washing three times by centrifugation, 2×10^6 DBA/2 spleen cells (stimulator) were mixed with 6×10^6 C57BL/6 spleen cells (responder) in 2 ml of RPMI1640 medium containing 10% fetal calf serum. The cells were cultured for 5 days in a 12 well plastic plate. In some experiments, CTL (2×10^6 cells) were restimulated on day 5 using mitomycin C-treated DBA/2 spleen cells (4×10^6 cells). The restimulated cells were cultured for additional 2 days, and were analyzed on day 7.
(§2) Culture supernatant was collected 5 days after the set up of mixed lymphocyte culture or 2 days after restimulation and was stored at 4° C. for subsequent measurement of interferon-γ (IFN-γ) levels. IFN-γ was quantified by ELISA (R&D Systems; Minneapolis, Minn.) according to manufacturer's instruction. Cells were incubated for additional 4 h in the presence of 1 μCi [3H] thymidine (American Radiolabeled Chemicals, St. Louis, Mo.) and radioactivity of incorporated thymidine was counted.

[5] = tested on: mixed lymphocyte culture of C57BL/6 and DBA/2 spleen cells (CTL); assay: IFN-γ levels in mixed lymphocyte culture supernatant (ELISA); assay type: cell-based, mice; details: for IFN-γ levels in the culture supernatant, decreased to: primary mixed lymphocyte culture 5 days
Protocol: as §1, §2

[6] = tested on: P815 mastocytoma; assay: Cytotoxicity assay, 51Cr release
Protocol: Cytotoxicity of T cells against P815 mastocytoma (H-2^d) was determined by ^51Cr release assay. Initially, P815 cells (2×10^6) were incubated with 100 μCi [^51Cr] sodium chromate (Perkin Elmer, Boston, Mass.) for 1 h at 37° C. The cells were washed for three times by centrifugation to remove excess radioactivity. The labeled P815 cells (1×10^4 cells) were mixed with the effector cells recovered from mixed lymphocyte culture in a volume of 150 μl. […] Sedimentation of the cells in a v-bottom 96 well plate by brief centrifugation was followed by incubation at 37° C. After 4 h, ^51Cr release in the supernatant from target cells was counted using γ-radiation counter. Spontaneous ^51Cr release was measured by culturing target cells alone. Maximum ^51Cr release was measured by adding 1N hydrochloric acid to the same number of target cells. Cytotoxicity was calculated as percentage cell lysis when spontaneous and maximum ^51Cr release were set to 0% and 100%, respectively.

[7] = CTL developed with NECA (0.1 (unit uncertain))
[8] = CTL developed with NECA (1 (unit uncertain))
[9] = CTL developed with NECA (10 (unit uncertain))
[10] = NECA (0.1-1 μM) added only for 2 days after restimulation of 5-day CTL

CCNC(=O)[C@H]1O[C@@H](n2cnc3c(N)nc(NCCc4ccc(CCC(=O)O)cc4)nc32)[C@H](O)[C@@H]1O [CGS]
increase of cAMP levels [1]: 7.4 fold | IFN-γ levels (%) of corresponding CTL without CGS/NECA [2, 7]: 57 ± 8 % | IFN-γ levels (%) of corresponding CTL without CGS/NECA [2, 8]: 67 ± 10 % | IFN-γ levels (%) of corresponding CTL without CGS/NECA [2, 9]: 80 ± 13 % | IFN-γ levels (%) of corresponding CTL without CGS/NECA ([2]; Control CTL): 44% and 44 ± 11% | IFN-γ production [2]: strongly inhibited | IFN-γ producing capacity retained ([2]; negatively selected NECA-CTL tested for inhibition by CGS): up to 80% | reduction of IFN-γ producers [3]: 70%

CCNC(=O)[C@H]1O[C@@H](n2cnc3c(N)ncnc32)[C@H](O)[C@@H]1O [NECA, 5′-N-ethylcarboxamidoadenosine]
proliferation of CTL after restimulation [4, 10]: inhibit proliferation of CTL | cell number, % of control ([4]; NECA 0.1 μM): 78% | cell number, % of control ([4]; NECA 1 μM): 72% | cell number, % of control ([4]; NECA 10 μM): 68% | Cell proliferation, [3H] thymidine incorporation, decreased to ([4]; primary mixed lymphocyte culture, 5 days in the presence of NECA (0.1-10 μM)): 30-40% | IFN-γ levels in the culture supernatant after restimulation [5, 10]: inhibit | IFN-γ levels in the culture supernatant, decreased to ([5]; 10^−5 M NECA): 18% | IFN-γ levels in the culture supernatant, decreased to ([5]; 10^−7 M NECA): 44% | increase of cAMP levels [1]: 11.1 fold | IFN-γ levels ([2]; CTL developed with NECA 0.1 μM (table; 0.1 μM)): 3722 pg/mL | IFN-γ levels ([2]; CTL developed with NECA 1 mM (table; 1 μM)): 2327 pg/mL | IFN-γ levels ([2]; CTL developed with NECA 10 mM (table; 10 μM)): 1089 pg/mL | IFN-γ levels (%) of corresponding CTL without CGS/NECA [2, 7]: 44 ± 12 % | IFN-γ levels (%), None (reference = 100) [2, 7]: 100 ± 23% | IFN-γ levels (%) of corresponding CTL without CGS/NECA [2, 8]: 56 ± 8 % | IFN-γ levels (%), None (reference = 100) [2, 8]: 100 ± 19% | IFN-γ levels (%) of corresponding CTL without CGS/NECA [2, 9]: 60 ± 8 % | IFN-γ levels (%), None (reference = 100) [2, 9]: 100 ± 5% | IFN-γ levels (%) of corresponding CTL without CGS/NECA ([2]; Control CTL): 28 ± 7% | IFN-γ production [2]: strongly inhibited | proportion of CD8+ T cells in the expanded cells ([3]; NECA added only for 2 days after restimulation): unchanged from control CTL | reduction of IFN-γ producers [3]: 70% | Cytotoxicity, % of control ([6]; CTL from primary culture with 10^−5 M NECA, effector-target ratio 5:1): 33% | cytotoxicity against P815 ([6]; NECA added only for 2 days after restimulation, effector-target ratio 5:1, 2.5:1, 1.25:1): not impaired
